# Measured values from patent US20040063780A1, “Pharmaceutical preparations for treatment of type II diabetes and methods for treatment of type II diabetes” (CHUGAI SEIYAKU KABUSHIKI KAISHA, priority 2002, published 2004).
# “And” between values parts separate entries of the source, which are not always exact repeats. Equal values may be shown once.
# Key:
# db/db mice = assay: Oral glucose tolerance test in db/db mice (blood glucose and blood lactic acid levels); type: in vivo, mice (C57BLKS/J-m+/+Lepr<db>(db/db)); conditions: subcutaneous, 30 min before oral glucose 3 g/kg, AUC up to 2 hours
# Excerpt: In a glucose tolerance test with oral administration to db/db mice, approximately 50% suppression of blood glucose level in the db/db mice produces a level increase similar to that of healthy mice, and therefore a blood glucose reduction rate of at least 40%, and especially at least 50%, is preferred.
# Measurement of blood glucose reduction rate in db/db mice by a glucose tolerance test with oral administration may be carried out by a publicly known method, but the following method is preferred. Specifically, 11- to 17-week-old female mice (C57BLKS/J-m+/+Lepr(db/db) ) are starved for 18-24 hours. A group of five or six mice is used for the test. Blood is sampled from the tail for measurement of the blood glucose levels before treatment as a control. After sampling, the biguanide derivative is dissolved in phosphate-buffered saline to a suitable concentration and subcutaneously administered at a dose of 5 ml/kg. As a control there are prepared mice administered only the solvent. Glucose is then administered orally at a dose of 3 g/6 ml/kg at 30 minutes after administration of the compound or solvent as an oral glucose tolerance test. Blood is sampled from the tail for measurement of the blood glucose levels 30 minutes, 1 hour and 2 hours after glucose administration. The blood glucose levels are measured using a New Blood Sugar Test (Roche Diagnostics) or a Glucose CII-Test Wako (Wako Pure Chemical Industries, Ltd.).
# (§1) The blood glucose reduction rate is calculated according to the following formula.
# Blood glucose reduction rate (%)=[(AUC for blood glucose increase level of solvent-administered group—AUC for blood glucose increase level of compound-administered group)/AUC for blood glucose increase level of solvent-administered group]×100
# The AUC for blood glucose increase level represents the area of the increase portion in a graph of the blood glucose level changes after glucose administration plotted with respect to time, up to 2 hours after glucose administration, with the glucose level prior to glucose administration as the baseline. Specifically, the AUC for the blood glucose increase level may be calculated by the following formula, where A=blood glucose level before glucose administration, B=blood glucose level 30 minutes after glucose administration, C=blood glucose level 1 hour after glucose administration, D=blood glucose level 2 hours after glucose administration.
# AUC for blood glucose increase level=0.5×((A+B)/2-A)+0.5×((B+C)/2-A)+1×((C+D)/2-A)
# Measurement of blood glucose reduction rate and blood lactic acid levels by the aforementioned oral glucose tolerance test may be carried out by a publicly known method, and the measurement of the former may be carried out by the method described above, while the following method is preferred for measurement of the latter. Specifically, 11- to 17-week-old female mice (C57BLKS/J-m+/+Lepr(db/db)) are starved for 18-24 hours. A group of five or six mice is used for the test. Blood is sampled from the tail for measurement of the blood lactic acid levels before treatment as a control. After sampling, the biguanide derivative is dissolved in phosphate-buffered saline to a suitable concentration and subcutaneously administered at a dose of 5 ml/kg. As a control there are prepared mice administered only the solvent. Glucose is then administered orally at a dose of 3 g/6 ml/kg at 30 minutes after administration of the compound or solvent as an oral glucose tolerance test. Blood is sampled from the tail for measurement of the blood lactic acid levels 30 minutes, 1 hour and 2 hours after glucose administration. The blood lactic acid levels are measured using an “Asuka Sigma” (Sigma Diagnostics)
# The blood lactic acid level increase rate is calculated according to the following formula. […]
# KKAy mice = assay: Hypoglycemic test by oral administration using KKAy mice; type: in vivo, mice (KKAy/Ta); conditions: AUC for blood glucose up to 6 hours after administration
# Excerpt: The strength of the insulin sensitivity-enhancing effect may be evaluated based on the degree of blood glucose reduction rate with administration of the drug agent to KKAy mice. […] In hypoglycemic tests by oral administration using KKAy mice, approximately 45% suppression of blood glucose level in KKAy mice produces a level similar to healthy mice, and therefore a blood glucose reduction rate of 40-50% is preferred.
# Measurement of blood glucose reduction rate in KKAy mice by a hypoglycemic test with oral administration may be carried out by a publicly known method, but the following method is preferred.
# Specifically, a group of six 11-week-old male mice (KKAy/Ta) is used for the test. Blood is sampled from the tail for measurement of the blood glucose levels before treatment as a control. After sampling, the biguanide derivative is dissolved in a 0.5% CMC-Na (sodium carboxymethyl cellulose) solution to a suitable concentration and orally administered at a dose of 10 mL/kg. As a control there are prepared mice administered only the solvent. Blood is sampled from the tail to measure the blood glucose levels 1, 2, 4 and 6 hours after administration of the drug. The blood glucose levels are measured using a Glucose CII-Test Wako (Wako Pure Chemical Industries, Ltd.).
# as §1
# Blood glucose reduction rate (%)=[(AUC for blood glucose of control group—AUC for blood glucose of compound-administered group)/AUC for blood glucose of control group]×100
# The AUC for blood glucose represents the area in a graph of the blood glucose level changes after administration of the drug plotted with respect to time, up to 6 hours after administration with a glucose level of 0 as the baseline. Specifically, the AUC for the blood glucose level may be calculated by the following formula, where A=blood glucose level before drug administration, B=blood glucose level 1 hour after drug administration, C=blood glucose level 2 hours after drug administration, D=blood glucose level 4 hours after drug administration, E=blood glucose level 6 hours after drug administration.
# AUC for blood glucose level=1×((A+B)/2)+1×((B+C)/2)+2×((C+D)/2)+2×((D+E)/2)
# A group of six 11-week-old male mice (KKAy/Ta) was used for the test. Blood was sampled from the tail for measurement of the blood glucose levels before treatment as a control. After sampling, furfuryl biguanide was dissolved in a 0.5% CMC-Na (sodium carboxymethyl cellulose) solution to a suitable concentration and orally administered at 10 mL/kg with the dosages shown in Table 1 (Examples 1-5). For comparison, metformin was also orally administered to mice in the doses shown in Table 1 (Comparative Examples 1-5). As a control there were prepared mice which had been orally administered the solvent alone. Blood was sampled from the tail to measure the blood glucose levels 1, 2, 4 and 6 hours after administration of the drug, and the blood glucose reduction rates were calculated by the formula given above. The blood glucose levels were measured using a Glucose CIT-Test Wako (Wako Pure Chemical Industries, Ltd.).
# [1] = Mus musculus, sc, 2 h, 75 mg/kg, read-out: Blood glucose reduction rate (%)
# [2] = Mus musculus, sc, 2 h, read-out: Blood glucose reduction rate (%)
# [3] = Mus musculus, sc, 2 h, 200 mg/kg, read-out: Blood glucose reduction rate (%)
smiles,measurement,setting,value
Cc1ccc(CNC(=N)NC(=N)N)o1 [1-(5-methylfurfuryl) biguanide],inhibition in vivo at 25 mg/kg,"db/db mice; Mus musculus, sc, 2 h, 25 mg/kg, read-out: Blood glucose reduction rate (%)",24.7%
same,inhibition in vivo at 50 mg/kg,"db/db mice; Mus musculus, sc, 2 h, 50 mg/kg, read-out: Blood glucose reduction rate (%)",46.1%
same,inhibition in vivo at 75 mg/kg,db/db mice; [1],54.7%
same,inhibition in vivo at 100 mg/kg,db/db mice; [2],86.6%
same,Blood lactic acid level increase rate (%),db/db mice; 25 mg/kg,3.9%
same,Blood lactic acid level increase rate (%),db/db mice; 50 mg/kg,1.3%
same,Blood lactic acid level increase rate (%),db/db mice; 75 mg/kg,14.7%
CSCc1ccoc1CNC(=N)NC(=N)N [1-[(3-Methylthiomethylfuran-2-yl)methyl] Biguanide],inhibition in vivo at 150 mg/kg,db/db mice; [2],47.3%
"Cc1cc(CNC(=N)NC(=N)N)oc1C [1-[(4,5-Dimethylfuran-2-yl)methyl] Biguanide]",inhibition in vivo at 75 mg/kg,db/db mice; [1],52%
CSc1coc(CNC(=N)NC(=N)N)c1 [1-[(4-Methylthiofuran-2-yl)methyl] Biguanide],inhibition in vivo at 75 mg/kg,db/db mice; [1],44.1%
same,inhibition in vivo at 100 mg/kg,db/db mice; [2],47.5%
same,inhibition in vivo at 150 mg/kg,db/db mice; [2],58.1%
same,inhibition in vivo at 200 mg/kg,db/db mice; [3],73.9%
CSCc1ccc(CNC(=N)NC(=N)N)o1 [1-[(5-Methylthiomethylfuran-2-yl)methyll] Biguanide],inhibition in vivo at 75 mg/kg,db/db mice; [1],46%
"CCc1ccc(CNC(=N)NC(=N)N)o1 [1-[(5-ethylfuran-2-yl)methyl] biguanide, 1-[(5-Ethylfuran-2-yl)methyl] Biguanide]",inhibition in vivo at 75 mg/kg,db/db mice; [1],71.3%
CC(C)(C)c1ccc(CNC(=N)NC(=N)N)o1 [1-[(5-tert-butylfuran-2-yl)methyl] Biguanide],inhibition in vivo at 75 mg/kg,db/db mice; [1],62.1%
"N=C(N)NC(=N)NCc1ccco1 [Furfuryl biguanide, Furfuryl Biguanide]",inhibition in vivo at 20 mg/kg,"db/db mice; Mus musculus, sc, 2 h, 20.0 mg/kg, read-out: Blood glucose reduction rate (%)",46.9%
same,inhibition in vivo at 40 mg/kg,"db/db mice; Mus musculus, sc, 2 h, 40.0 mg/kg, read-out: Blood glucose reduction rate (%)",52.3%
same,inhibition in vivo at 75 mg/kg,db/db mice; [1],60.6%
same,inhibition in vivo at 80 mg/kg,"db/db mice; Mus musculus, sc, 2 h, 80.0 mg/kg, read-out: Blood glucose reduction rate (%)",68.7%
same,Blood lactic acid level increase rate (%),db/db mice; 20.0 mg/kg,7.0%
same,Blood lactic acid level increase rate (%),db/db mice; 40.0 mg/kg,16.7%
same,Blood lactic acid level increase rate (%),db/db mice; 75 mg/kg,22.0%
same,Blood lactic acid level increase rate (%),db/db mice; 80.0 mg/kg,11.2%
same,Blood glucose reduction rate (%),KKAy mice; 25.0 mg/kg,8.7%
same,Blood glucose reduction rate (%),KKAy mice; 50.0 mg/kg,15.2%
same,Blood glucose reduction rate (%),KKAy mice; 100.0 mg/kg,29.4%
same,Blood glucose reduction rate (%),KKAy mice; 200.0 mg/kg,43.9%
same,Blood glucose reduction rate (%),KKAy mice; 300.0 mg/kg,48.0%
"CN(C)C(=N)N=C(N)N [Metformin, reference compound]",inhibition in vivo at 100 mg/kg,db/db mice; [2],19.4%
same,inhibition in vivo at 200 mg/kg,db/db mice; [3],37.5%
same,Blood lactic acid level increase rate (%),"db/db mice; 200 mg/kg, 200 mg/kg",36.8% and 42.7%
same,Blood lactic acid level increase rate (%),"db/db mice; 300 mg/kg, 300 mg/kg",133.7% and 155.9% and 138.9% and 145.9%
same,Blood glucose reduction rate (%),KKAy mice; 150.0 mg/kg,11.6%
same,Blood glucose reduction rate (%),KKAy mice; 300.0 mg/kg,6.4%
same,Blood glucose reduction rate (%),KKAy mice; 600.0 mg/kg,21.8%
same,Blood glucose reduction rate (%),KKAy mice; 900.0 mg/kg,32.7%
same,Blood glucose reduction rate (%),KKAy mice; 1350.0 mg/kg,46.4%
